Experimental data from the NIST ThermoML archive (doi:10.1016/j.jct.2017.07.008).
Values joined by “and” are separate entries in the source; they are usually repeats but may differ in a detail not shown here. Equal values may be shown once.

Details: for mass density / viscosity / speed of sound: Liquid; for mass density: Vibrating tube method; for surface tension liquid-gas: Drop volume; for viscosity: Capillary tube (Ostwald / Ubbelohde) method; for speed of sound: Frequency=3 MHz, Single path-length method

OCc1cccs1 [2-thiophenemethanol]
Details	mass density	speed of sound [m/s]	viscosity [mPa·s]
298.15 K, 15000 kPa	1210.08 kg/m3	–	–
298.15 K, 20000 kPa	1212.57 kg/m3	–	–
298.15 K, 25000 kPa	1215 kg/m3	–	–
298.15 K, 30000 kPa	1217.36 kg/m3	–	–
298.15 K, 35000 kPa	1219.67 kg/m3	–	–
298.15 K, 40000 kPa	1221.93 kg/m3	–	–
298.15 K, 45000 kPa	1224.14 kg/m3	–	–
298.15 K, 50000 kPa	1226.3 kg/m3	–	–
298.15 K, 55000 kPa	1228.41 kg/m3	–	–
298.15 K, 60000 kPa	1230.48 kg/m3	–	–
298.15 K, 65000 kPa	1232.51 kg/m3	–	–
300.65 K, 100 kPa	1200.01 kg/m3	1493.9	6.607
303.15 K, 100 kPa	1197.82 kg/m3 and 1197.79 kg/m3	1486.6	6.079
303.15 K, 2000 kPa	1198.88 kg/m3	–	–
303.15 K, 5000 kPa	1200.52 kg/m3	–	–
303.15 K, 7000 kPa	1201.6 kg/m3	–	–
303.15 K, 10000 kPa	1203.2 kg/m3	–	–
303.15 K, 15000 kPa	1205.8 kg/m3	–	–
303.15 K, 20000 kPa	1208.33 kg/m3	–	–
303.15 K, 25000 kPa	1210.8 kg/m3	–	–
303.15 K, 30000 kPa	1213.21 kg/m3	–	–
303.15 K, 35000 kPa	1215.57 kg/m3	–	–
303.15 K, 40000 kPa	1217.86 kg/m3	–	–
303.15 K, 45000 kPa	1220.11 kg/m3	–	–
303.15 K, 50000 kPa	1222.3 kg/m3	–	–
303.15 K, 55000 kPa	1224.45 kg/m3	–	–
303.15 K, 60000 kPa	1226.55 kg/m3	–	–
303.15 K, 65000 kPa	1228.61 kg/m3	–	–
305.65 K, 100 kPa	1195.57 kg/m3	1479.3	5.609
308.15 K, 100 kPa	1193.36 kg/m3 and 1193.34 kg/m3	1472	5.18
308.15 K, 2000 kPa	1194.44 kg/m3	–	–
308.15 K, 5000 kPa	1196.12 kg/m3	–	–
308.15 K, 7000 kPa	1197.22 kg/m3	–	–
308.15 K, 10000 kPa	1198.85 kg/m3	–	–
308.15 K, 15000 kPa	1201.5 kg/m3	–	–
308.15 K, 20000 kPa	1204.09 kg/m3	–	–
308.15 K, 25000 kPa	1206.61 kg/m3	–	–
308.15 K, 30000 kPa	1209.06 kg/m3	–	–
308.15 K, 35000 kPa	1211.45 kg/m3	–	–
308.15 K, 40000 kPa	1213.79 kg/m3	–	–
308.15 K, 45000 kPa	1216.07 kg/m3	–	–
308.15 K, 50000 kPa	1218.3 kg/m3	–	–
308.15 K, 55000 kPa	1220.48 kg/m3	–	–
308.15 K, 60000 kPa	1222.62 kg/m3	–	–
308.15 K, 65000 kPa	1224.71 kg/m3	–	–
310.65 K, 100 kPa	1191.11 kg/m3	1464.8	4.795
313.15 K, 100 kPa	1188.89 kg/m3 and 1188.87 kg/m3	1457.6	4.455
313.15 K, 2000 kPa	1189.99 kg/m3	–	–
313.15 K, 5000 kPa	1191.7 kg/m3	–	–
313.15 K, 7000 kPa	1192.83 kg/m3	–	–
313.15 K, 10000 kPa	1194.49 kg/m3	–	–
313.15 K, 15000 kPa	1197.2 kg/m3	–	–
313.15 K, 20000 kPa	1199.83 kg/m3	–	–
313.15 K, 25000 kPa	1202.4 kg/m3	–	–
313.15 K, 30000 kPa	1204.9 kg/m3	–	–
313.15 K, 35000 kPa	1207.33 kg/m3	–	–
313.15 K, 40000 kPa	1209.71 kg/m3	–	–
313.15 K, 45000 kPa	1212.03 kg/m3	–	–
313.15 K, 50000 kPa	1214.3 kg/m3	–	–

Details	surface tension liquid-gas [mN/m]
300.65 K	43.29
303.15 K	43.04
305.65 K	42.78
308.15 K	42.54
310.65 K	42.27
313.15 K	41.96
